Data reported in article PMC4965148 (PLoS ONE, 2016).
“And” between values parts separate entries of the source, which are not always exact repeats. Identical values can stand only once.

Columns and labels:
[1] = biological target: Adrenergic α1D (Homo sapiens, UniProt P25100); test: Selectivity panel, binding
[2] = tested on: MK-801 treated mice; test: Mouse MK-801 two trial Y maze; format: in vivo
Description: Testing was conducted in a grey polyethylene plastic Y maze that had 3 arms, 2 of 40 cm length (test arms) and 1 of 20 cm length (start arm). Each arm had distinct optical cues covering the walls and a removable partition to occlude the arm as needed. The test consisted of a forced choice trial followed by a free-choice trial. For the forced choice trial the start arm and one test arm was open with access to the 2nd test arm blocked by the partition. Individual subjects were placed in the start arm and allowed to explore the open test arm for 8 min after which they were removed from the maze, placed in a holding cage and the maze was cleaned. Animals were then immediately placed back on the Y maze for the free choice trial and allowed to explore both open test arms for 4 min. The protocol was thus designed for minimal delay between the forced choice and free choice trials. […] For each subject the % time exploring the novel arm during the free choice trial was calculated using the formula: % novel time = novel time/(novel + familiar time) x 100.

[3] = biological target: PDE4; test: Selectivity panel, enzyme; format: biochemical; settings: Human
[4] = biological target: T1, HEK293/rat α7 nAChR cells (Rattus norvegicus, UniProt Q05941); test: Whole cell voltage clamp electrophysiology; format: cell-based; settings: for Net Charge (Current Area) normalized to 300 µM ACh / Peak Current normalized to 3 mM ACh: individual cells; for mean ± SEM peak current Ymax: n = 5
T1 construct: expressed in transfected cells
T1 sequence (Q05941 23-502): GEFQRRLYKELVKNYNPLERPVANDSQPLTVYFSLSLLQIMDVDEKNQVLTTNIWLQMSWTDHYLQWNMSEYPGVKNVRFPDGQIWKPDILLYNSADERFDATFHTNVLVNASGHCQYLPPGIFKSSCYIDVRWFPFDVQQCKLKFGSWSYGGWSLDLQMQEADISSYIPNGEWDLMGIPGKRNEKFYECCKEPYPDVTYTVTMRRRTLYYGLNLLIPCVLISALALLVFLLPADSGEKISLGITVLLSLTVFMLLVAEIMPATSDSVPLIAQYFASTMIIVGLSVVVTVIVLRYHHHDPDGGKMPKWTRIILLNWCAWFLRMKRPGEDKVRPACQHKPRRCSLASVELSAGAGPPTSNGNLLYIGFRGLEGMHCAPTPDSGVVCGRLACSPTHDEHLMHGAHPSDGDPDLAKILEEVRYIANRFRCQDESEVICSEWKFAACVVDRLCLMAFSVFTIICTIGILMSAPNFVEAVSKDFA
Description: (§1) Whole-cell voltage clamp studies were conducted on HEK293/rat α7 or HEK293/human α7 nAChR cells. […] Atropine (1 μM) was included in the bathing solution. […] Cells were voltage clamped at a holding potential of -90 mV. Using the Dynaflow microfluidic perfusion system (Cellectricon; flow 26 μl/min) responses to a 300 ms application of ACh or α7 nAChR agonists were measured. Currents were filtered at 2 kHz and sampled at 10 kHz using an EPC-9 amplifier and HEKA Pulse/Patchmaster software. […] The peak current amplitude and net charge crossing the membrane (i.e. the area under the current response curve) induced by agonist application were measured using Clampfit (pClamp Suite) and normalized to the maximal response induced by ACh (3 mM ACh for peak current amplitude and 300 μM ACh for net charge).

[5] = tested on: S(+)ketamine treated rats; test: Rat S(+)ketamine N40 gating
[6] = biological target: Estrogen receptor alpha (Homo sapiens, UniProt P03372); test: Selectivity panel, binding
[7] = tested on: MK-801 treated Sprague Dawley rats; test: Rat MK-801 set shift procedure; format: in vivo
Description: Studies followed the methods described in detail in [19] and are briefly summarized here. All rats were singly housed and food-restricted (15g/rat/day) for 7 days prior to initiation of training and for the duration of the study. At the time of testing, the average (± SEM) body weight for individual treatment groups ranged from 168 ± 4 g to 180 ± 6 g. Prior to the study several habituation sessions were conducted to familiarize subjects to the maze and task requirements. The maze consisted of 4 arms (40 cm long x 14 cm wide x 20 cm high) arranged in a ‘+’ configuration and the walls and floor of each arm were distinct and colored either black or white with either a rough or smooth texture (i.e. 1 arm with each of the following combinations: white/smooth, white/rough, black/smooth, black/rough). […] The arm opposite the blocked arm was designated as the ‘start arm’ and only 1 of the 2 remaining arms was baited with food pellets. The set shift procedure comprised 2 test sessions conducted over 2 consecutive days. On the first day (Set 1) rats were required to learn the association of either the color or texture of the maze arms with the location of a food reward. Animals were randomly assigned a correct exemplar within a given dimension as being predictive of reward with 50% of the rats assigned color and 50% assigned texture. Each rat was given a maximum of 120 trials on the maze which was rotated 90 degrees between successive trials so that the adjacent arms now became either the ‘start arm’ or the arm that was blocked. Animals were allowed to visit 1 of the 2 open arms and the trial recorded as correct if the arm with the pre-assigned exemplar was visited and the food reward retrieved. The inter-trial interval was 15 s. Rats were required to achieve a performance criterion of 8 consecutive entries into the rewarded arm at which point testing stopped and the animal was presumed to have learnt the association between the correct exemplar in the assigned dimension and food reward. On day 2 (Set 2) animals were again tested in the maze configured as described for Set 1 with the exception that the dimension predicting food reward was now switched (i.e. animals trained on color for Set 1 were switched to texture and visa versa). Correct performance was again defined as 8 consecutive entries into the rewarded arm with a maximal number of 80 trials allowed. All dosing was administered on day 2 prior to Set 2 testing.

[8] = tested on: neonatal PCP treated rats; test: Rat neonatal PCP mismatch negativity
Description: Adult male rats treated neonatally with PCP were implanted with epidural screw electrodes at the following co-ordinates under isoflurane anesthesia: 6 mm rostral and 1 mm off midline to the left from bregma; 5.5 mm rostral to interaural line and 1 mm off to the right from midline. Following recovery EEG recordings were collected from conscious rats housed in individual sound attenuated chambers (Med Associates, St Albans, VT) with the recording electrodes tethered through a low torque commutator system (Plastics One Inc, Roannoke, VA) to a differential amplifier (gain x1000; Warner Instruments, Hamden, CT). […] Baseline EEG was first recorded using Spike v5.19 or later software (CED, Cambridge, UK) to ensure electrical connectivity and an acceptable EEG signal. A simultaneous video was used to assess the general state of the animals during the recordings. […] Tones (70 dB) were delivered through a speaker mounted in the top center of the housing chamber and presented at 450 ms intervals. In each experimental session 700 standard and 100 deviant tones were presented. Data were analyzed using Signal v4.09 software (CED, Cambridge, UK). Artifact free trials were visually identified, corrected for baseline shift using the first 100 ms of the pre-stimulus baseline, 30 Hz low-pass filtered using a second order Butterworth digital filter and averaged to give evoked potential for each subject.

[9] = biological target: Adenosine A2a (Homo sapiens, UniProt P29274); test: Selectivity panel, binding
Adenosine A2a, sequence (P29274 whole entry): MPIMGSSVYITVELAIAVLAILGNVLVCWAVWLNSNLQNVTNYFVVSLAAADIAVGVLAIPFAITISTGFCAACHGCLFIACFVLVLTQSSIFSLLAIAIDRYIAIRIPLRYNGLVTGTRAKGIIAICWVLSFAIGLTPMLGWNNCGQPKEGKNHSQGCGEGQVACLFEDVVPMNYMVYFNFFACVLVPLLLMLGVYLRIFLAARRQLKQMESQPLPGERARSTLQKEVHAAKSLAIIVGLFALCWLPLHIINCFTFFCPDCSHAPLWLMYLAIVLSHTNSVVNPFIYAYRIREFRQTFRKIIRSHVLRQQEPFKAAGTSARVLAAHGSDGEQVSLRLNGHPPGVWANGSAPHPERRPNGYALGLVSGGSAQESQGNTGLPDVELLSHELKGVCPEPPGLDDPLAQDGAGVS

[10] = biological target: Dopamine transporter (Homo sapiens, UniProt Q01959); test: Selectivity panel, binding
Dopamine transporter, sequence (Q01959 whole entry): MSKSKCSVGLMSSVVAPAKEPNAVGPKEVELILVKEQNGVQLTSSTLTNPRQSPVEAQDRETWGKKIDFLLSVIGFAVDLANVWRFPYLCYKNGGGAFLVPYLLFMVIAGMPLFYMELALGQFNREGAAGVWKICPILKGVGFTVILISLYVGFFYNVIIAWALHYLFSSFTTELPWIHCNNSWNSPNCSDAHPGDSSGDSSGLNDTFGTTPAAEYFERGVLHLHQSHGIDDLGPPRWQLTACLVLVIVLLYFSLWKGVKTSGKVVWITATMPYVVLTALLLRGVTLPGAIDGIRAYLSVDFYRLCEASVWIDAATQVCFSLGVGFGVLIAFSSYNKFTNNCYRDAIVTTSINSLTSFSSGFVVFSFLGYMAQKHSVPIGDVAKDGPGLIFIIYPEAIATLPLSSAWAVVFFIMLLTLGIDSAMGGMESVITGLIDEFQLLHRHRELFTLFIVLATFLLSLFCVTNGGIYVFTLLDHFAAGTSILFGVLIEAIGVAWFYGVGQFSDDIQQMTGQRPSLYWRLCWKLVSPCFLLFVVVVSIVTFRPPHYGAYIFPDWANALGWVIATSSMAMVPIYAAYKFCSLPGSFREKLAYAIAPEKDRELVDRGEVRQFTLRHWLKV

[11] = biological target: Histamine H1 (Homo sapiens, UniProt P35367); test: Selectivity panel, binding
Histamine H1, sequence (P35367 whole entry): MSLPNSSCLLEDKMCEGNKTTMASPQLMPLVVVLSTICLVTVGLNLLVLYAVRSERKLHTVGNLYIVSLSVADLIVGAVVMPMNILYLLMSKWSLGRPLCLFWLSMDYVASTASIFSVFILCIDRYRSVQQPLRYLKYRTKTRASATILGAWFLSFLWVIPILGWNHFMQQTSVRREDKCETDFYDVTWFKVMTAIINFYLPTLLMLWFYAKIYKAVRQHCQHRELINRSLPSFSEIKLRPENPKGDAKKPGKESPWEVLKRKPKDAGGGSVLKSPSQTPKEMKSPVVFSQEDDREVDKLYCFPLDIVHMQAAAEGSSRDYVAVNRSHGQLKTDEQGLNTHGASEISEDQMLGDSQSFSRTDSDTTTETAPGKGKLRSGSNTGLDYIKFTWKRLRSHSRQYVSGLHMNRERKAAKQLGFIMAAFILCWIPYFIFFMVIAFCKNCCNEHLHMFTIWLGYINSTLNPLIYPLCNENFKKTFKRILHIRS

[12] = biological target: Opiate Kappa (Homo sapiens, UniProt P41145); test: Selectivity panel, binding
Opiate Kappa, sequence (P41145 whole entry): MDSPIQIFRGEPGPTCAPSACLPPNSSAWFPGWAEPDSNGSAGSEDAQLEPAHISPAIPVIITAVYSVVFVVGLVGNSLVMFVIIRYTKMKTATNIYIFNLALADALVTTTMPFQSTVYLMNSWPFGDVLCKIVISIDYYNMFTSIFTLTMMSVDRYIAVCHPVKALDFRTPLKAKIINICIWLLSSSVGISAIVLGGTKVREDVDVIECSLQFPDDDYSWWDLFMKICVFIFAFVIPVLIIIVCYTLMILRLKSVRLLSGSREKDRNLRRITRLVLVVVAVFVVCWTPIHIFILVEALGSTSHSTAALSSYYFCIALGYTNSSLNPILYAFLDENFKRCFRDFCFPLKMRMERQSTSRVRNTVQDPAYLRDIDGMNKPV

[13] = biological target: T2, HEK293/human α7 nAChR cells (Homo sapiens, UniProt P36544); test: Whole cell voltage clamp electrophysiology; format: cell-based; settings: for Net Charge (Current Area) normalized to 300 µM ACh / Peak Current normalized to 3 mM ACh: individual cells
T2 construct: expressed in transfected cells
T2 sequence (P36544 23-502): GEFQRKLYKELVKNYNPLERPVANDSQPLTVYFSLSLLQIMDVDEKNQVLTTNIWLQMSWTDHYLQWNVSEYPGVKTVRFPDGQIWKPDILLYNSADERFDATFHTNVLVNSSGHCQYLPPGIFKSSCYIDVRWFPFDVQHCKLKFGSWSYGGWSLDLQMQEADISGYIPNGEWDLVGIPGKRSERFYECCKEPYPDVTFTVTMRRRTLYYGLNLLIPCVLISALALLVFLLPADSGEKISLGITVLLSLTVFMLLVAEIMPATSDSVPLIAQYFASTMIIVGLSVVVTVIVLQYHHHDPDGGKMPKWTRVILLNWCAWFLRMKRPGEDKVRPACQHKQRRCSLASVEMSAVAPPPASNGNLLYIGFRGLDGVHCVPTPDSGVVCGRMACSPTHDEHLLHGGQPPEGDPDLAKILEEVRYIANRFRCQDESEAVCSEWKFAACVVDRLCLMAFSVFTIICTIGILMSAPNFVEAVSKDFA
Description: as §1

[14] = biological target: Dopamine D1 (Homo sapiens, UniProt P21728); test: Selectivity panel, binding
Dopamine D1, sequence (P21728 whole entry): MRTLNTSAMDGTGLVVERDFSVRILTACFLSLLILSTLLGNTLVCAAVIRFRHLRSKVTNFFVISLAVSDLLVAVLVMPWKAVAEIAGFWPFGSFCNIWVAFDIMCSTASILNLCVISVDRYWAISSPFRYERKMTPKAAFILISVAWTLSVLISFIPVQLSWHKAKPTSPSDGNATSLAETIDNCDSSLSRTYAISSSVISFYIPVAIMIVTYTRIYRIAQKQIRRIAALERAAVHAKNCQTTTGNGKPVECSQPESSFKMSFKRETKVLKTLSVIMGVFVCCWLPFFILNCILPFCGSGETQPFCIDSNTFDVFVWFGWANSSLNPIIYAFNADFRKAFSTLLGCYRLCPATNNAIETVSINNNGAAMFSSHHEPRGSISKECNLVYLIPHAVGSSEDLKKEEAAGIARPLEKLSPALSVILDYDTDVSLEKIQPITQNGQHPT

[15] = biological target: MAO-A (Homo sapiens, UniProt P21397); test: Selectivity panel, enzyme; format: biochemical
MAO-A, sequence (P21397 whole entry): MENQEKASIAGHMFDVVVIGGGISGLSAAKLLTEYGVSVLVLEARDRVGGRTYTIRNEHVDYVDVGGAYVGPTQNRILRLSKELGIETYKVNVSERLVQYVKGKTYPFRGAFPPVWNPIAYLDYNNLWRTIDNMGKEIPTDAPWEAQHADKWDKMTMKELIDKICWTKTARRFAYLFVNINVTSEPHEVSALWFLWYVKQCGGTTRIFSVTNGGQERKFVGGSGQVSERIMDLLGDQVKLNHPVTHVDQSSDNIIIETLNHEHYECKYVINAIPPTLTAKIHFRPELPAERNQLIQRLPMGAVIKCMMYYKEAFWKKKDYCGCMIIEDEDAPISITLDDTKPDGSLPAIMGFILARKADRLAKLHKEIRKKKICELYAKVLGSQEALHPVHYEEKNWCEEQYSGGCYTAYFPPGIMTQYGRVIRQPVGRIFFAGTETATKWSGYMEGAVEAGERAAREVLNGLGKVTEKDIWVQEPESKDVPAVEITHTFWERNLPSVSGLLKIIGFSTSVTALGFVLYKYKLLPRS

[16] = biological target: Muscarinic M1 (Homo sapiens, UniProt P11229); test: Selectivity panel, binding; settings: read-out: % inhibition @ 10 µM
Muscarinic M1, sequence (P11229 whole entry): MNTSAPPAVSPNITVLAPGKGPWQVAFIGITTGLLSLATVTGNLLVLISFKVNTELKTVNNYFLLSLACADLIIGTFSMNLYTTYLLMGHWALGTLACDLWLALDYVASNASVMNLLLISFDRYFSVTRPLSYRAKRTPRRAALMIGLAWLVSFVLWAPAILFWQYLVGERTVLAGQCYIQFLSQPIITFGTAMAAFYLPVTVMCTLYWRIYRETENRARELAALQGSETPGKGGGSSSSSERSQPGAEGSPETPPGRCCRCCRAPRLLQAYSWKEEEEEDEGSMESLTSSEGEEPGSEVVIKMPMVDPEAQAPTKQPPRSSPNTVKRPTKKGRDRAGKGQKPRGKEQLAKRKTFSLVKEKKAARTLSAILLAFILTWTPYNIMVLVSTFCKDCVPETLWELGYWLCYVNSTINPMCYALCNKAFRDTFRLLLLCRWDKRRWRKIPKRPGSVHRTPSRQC

[17] = tested on: L-type calcium channel; test: Selectivity panel, functional; format: cell-based; settings: Human

Adrenergic α1D, sequence (P25100 whole entry): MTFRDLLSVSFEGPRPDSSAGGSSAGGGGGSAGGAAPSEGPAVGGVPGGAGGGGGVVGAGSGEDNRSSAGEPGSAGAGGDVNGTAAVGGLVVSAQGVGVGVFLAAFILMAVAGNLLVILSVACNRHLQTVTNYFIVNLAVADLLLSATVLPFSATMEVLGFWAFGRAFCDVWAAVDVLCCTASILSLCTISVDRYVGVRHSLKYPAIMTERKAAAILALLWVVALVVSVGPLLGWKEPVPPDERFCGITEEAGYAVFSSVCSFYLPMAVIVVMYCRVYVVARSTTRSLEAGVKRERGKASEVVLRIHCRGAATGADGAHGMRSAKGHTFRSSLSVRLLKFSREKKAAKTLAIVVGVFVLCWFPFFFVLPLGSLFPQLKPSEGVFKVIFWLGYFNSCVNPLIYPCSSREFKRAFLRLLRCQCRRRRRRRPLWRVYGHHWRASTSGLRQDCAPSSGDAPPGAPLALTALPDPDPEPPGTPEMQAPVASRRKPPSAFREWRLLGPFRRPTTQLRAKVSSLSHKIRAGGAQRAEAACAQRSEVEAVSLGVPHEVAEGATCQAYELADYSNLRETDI

c1cn(-c2cc(NC3=NC[C@@]4(CN5CCC4CC5)O3)ncn2)cn1 [BMS-933043, (2R)-N-(6-(1H-imidazol-1-yl)-4-pyrimidinyl)-4'H-spiro[4-azabicyclo[2.2.2]octane-2,5'-[1,3]oxazol]-2'-amine]
IC50 [1]: > 30 µM
time spent in the novel arm in MK-801-treated mice ([2]; doses of 1, 3 and 10 mg/kg sc): significantly increased time spent in the novel arm
Active dose range, MK-801 Y maze ([2]; sc): 1–10 (sc) mg/kg
IC50 [3]: > 30 µM
EC50 [4]: 140 ± 30 nM
Net Charge (Current Area) normalized to 300 µM ACh ([4]; 0.1 µM): 0.00864 and -0.014 and 0.05917 and 0.0877
Peak Current normalized to 3 mM ACh ([4]; 0.1 µM): 0.01158 and 0.01083 and 0.01236 and 0.0131
Net Charge (Current Area) normalized to 300 µM ACh ([4]; 0.3 µM): 0.4138 and 0.2853 and 0.4739 and 0.5256
Peak Current normalized to 3 mM ACh ([4]; 0.3 µM): 0.04784 and 0.02829 and 0.03284 and 0.03669
Net Charge (Current Area) normalized to 300 µM ACh ([4]; 1 µM): 0.7172 and 0.3555 and 0.6626 and 0.6549
Peak Current normalized to 3 mM ACh ([4]; 1 µM): 0.07111 and 0.07356 and 0.0749 and 0.08082
Net Charge (Current Area) normalized to 300 µM ACh ([4]; 3 µM): 0.7919 and 0.4794 and 0.6677 and 0.6569
Peak Current normalized to 3 mM ACh ([4]; 3 µM): 0.1558 and 0.1519 and 0.1651 and 0.1365
Net Charge (Current Area) normalized to 300 µM ACh ([4]; 10 µM): 0.8266 and 0.4637 and 0.7322 and 0.6673
Peak Current normalized to 3 mM ACh ([4]; 10 µM): 0.2731 and 0.2904 and 0.2952 and 0.2153
mean ± SEM peak current Ymax ([4]; BMS-933043 10 μM alone): 0.26 ± 0.03
mean ± SEM peak current Ymax ([4]; BMS-933043 10 μM in the presence of 10 nM MLA): 0.02 ± 0.003
Mean ± SEM Net Charge Ymax ([4]; Rat, normalized to 300 μM ACh): 0.67 ± 0.07
Mean ± SEM Peak Current Ymaxobs @ 10 μM ([4]; Rat, normalized to 3 mM ACh): 0.27 ± 0.02
deficit in N40 gating following S(+)ketamine ([5]; 0.3 and 10 mg/kg sc): neither the lowest dose (0.3 mg/kg; data not shown) nor the highest dose (10 mg/kg) tested were significantly different
deficit in N40 gating following S(+)ketamine ([5]; 0.56, 1 and 3 mg/kg sc): significant reduction
Active dose range, S(+)Ketamine N40 gating ([5]; sc): 0.56–3.0 (sc) mg/kg
IC50 [6]: > 150 µM
Number of trials to criteria Mean ± SEM ([7]; 0.3 mg/kg po / MK-801, 0.3-3 mg/kg study): 66.4 ± 3.2
Number of trials to criteria Mean ± SEM ([7]; 1 mg/kg po / MK-801, 0.3-3 mg/kg study): 54.4 ± 4.8
Number of trials to criteria Mean ± SEM ([7]; 3 mg/kg po / MK-801, 0.3-3 mg/kg study): 50.3 ± 4.3
Number of trials to criteria Mean ± SEM ([7]; 3 mg/kg po / MK-801, 3-30 mg/kg study): 48.3 ± 5.8
Number of trials to criteria Mean ± SEM ([7]; 10 mg/kg po / MK-801, 3-30 mg/kg study): 54.0 ± 3.2
Number of trials to criteria Mean ± SEM ([7]; 30 mg/kg po / MK-801, 3-30 mg/kg study): 68.0 ± 4.7
perseverative errors in MK-801-treated animals ([7]; po): decreased perseverative errors
deviance detection (MMN) ([8]; 0.3 mg/kg sc): just failing to achieve statistical significance
AUC (150-200 ms) of difference wave, Mean ([8]; Study 1, 0.01 mg/kg sc): -6.608e-005
AUC (150-200 ms) of difference wave, Mean ([8]; Study 1, 0.1 mg/kg sc): -0.0001188
AUC (150-200 ms) of difference wave, Mean ([8]; Study 2, 0.03 mg/kg sc): -0.0002362
AUC (150-200 ms) of difference wave, Mean ([8]; Study 2, 0.1 mg/kg sc (so in the source)): -0.0001715
AUC (150-200 ms) of difference wave, Mean ([8]; Study 3, 1 mg/kg sc): -0.000159
AUC (150-200 ms) of difference wave, Mean ([8]; Study 3, 3 mg/kg sc): -0.0001341
deviance detection (MMN) ([8]; doses of 0.03, 0.1, 1 and 3 mg/kg sc): significant deviance detection from a hypothetical zero
Active dose range, Neonatal PCP MMN ([8]; sc): 0.03–3.0 (sc) mg/kg
IC50 [9]: > 30 µM
IC50 [10]: > 30 µM
IC50 [11]: > 30 µM
IC50 [12]: > 30 µM
EC50 [13]: 290 ± 10 nM
Net Charge (Current Area) normalized to 300 µM ACh ([13]; 0.1 µM): 0.01982 and 0.01318 and 0.03866 and 0.03782 and 0.02283 and 0.01327 and 0.03856
Peak Current normalized to 3 mM ACh ([13]; 0.1 µM): 0.005961 and 0.006675 and 0.008382 and 0.007317 and 0.006875 and 0.005721 and 0.00606
Net Charge (Current Area) normalized to 300 µM ACh ([13]; 0.3 µM): 0.3496 and 0.3624 and 0.3212 and 0.3215 and 0.2954 and 0.3576 and 0.4143
Peak Current normalized to 3 mM ACh ([13]; 0.3 µM): 0.02637 and 0.02303 and 0.02389 and 0.02438 and 0.0295 and 0.03259 and 0.02737
Net Charge (Current Area) normalized to 300 µM ACh ([13]; 1 µM): 0.6952 and 0.6304 and 0.6554 and 0.6122 and 0.619 and 0.6592 and 0.8129
Peak Current normalized to 3 mM ACh ([13]; 1 µM): 0.05479 and 0.03294 and 0.04392 and 0.05131 and 0.08504 and 0.08024 and 0.07272
Net Charge (Current Area) normalized to 300 µM ACh ([13]; 3 µM): 0.7025 and 0.6903 and 0.6991 and 0.888 and 0.7947 and 0.7791 and 0.7655
Peak Current normalized to 3 mM ACh ([13]; 3 µM): 0.126 and 0.0997 and 0.1092 and 0.09913 and 0.1966 and 0.202 and 0.183
Net Charge (Current Area) normalized to 300 µM ACh ([13]; 10 µM): 0.8035 and 0.7537 and 0.7969 and 0.7637 and 0.7224 and 0.6788 and 0.8823
Peak Current normalized to 3 mM ACh ([13]; 10 µM): 0.217 and 0.1532 and 0.1702 and 0.1779 and 0.3334 and 0.2987 and 0.3004
Mean ± SEM Net Charge Ymax ([13]; Human, normalized to 300 μM ACh): 0.78 ± 0.004
Mean ± SEM Peak Current Ymaxobs @ 10 μM ([13]; Human, normalized to 3 mM ACh): 0.24 ± 0.03
IC50 [14]: > 30 µM
IC50 [15]: > 30 µM
inhibition at 10 µM [16]: 11%
IC50 [17]: > 25 µM
